From US9415122B2, “Methods and compositions for the detection of cancer cells” (priority 2008, dated 2016)
Like-named read-outs stand apart in the source and are kept apart here. Where no end group is shown, it is not given here.

Tests used:
[1] = system: CNS-1-GFP intracranial tumors; conditions: for Cy5 fluorescence intensity of main tumors and dispersed cell populations: CNS-1 tumors, i.v. probe, 90 min clearance, normalized to background and tumor volume; for labeling of tumor (Cy5 signal) in words: intracranial glioma tumors, i.v. administration (FIG. 4)
Experimental: Imaging experiments were performed at 10-11 days for CNS-1 and 4-8 weeks for LN-229, to allow for optimal tumor growth and cell dispersal in these two cell lines. […] Following a 90-min interval for clearance of unbound probe, the animals were sacrificed and the brains removed for whole-brain imaging using the MAESTRO FLEX In-Vivo Imaging System (Cambridge Research & Instrumentation, Inc. (CRi), Woburn, Mass.) Immediately after imaging, the brains were embedded in Tissue-Tek OCT compound (Sakura Finetek U.S.A., Inc. Torrance, Calif.), frozen in a dry ice/ethanol slurry and cryo-imaged.
Frozen brains were alternately sectioned and imaged using the previously described Case Cryo-Imaging System at a section thickness of 15 μm and a resolution of 11×11×15 μm. Brightfield and fluorescence images were acquired for each of the brains using a low light digital camera (Retiga Exi, QImaging Inc., Canada), an epi-illumination fluorescent light source (Lumen200 PRO, Prior Scientific' Rockland, Mass.) and fluorescence filters for GFP (Exciter: HQ470/40x, Dichroic: Q495LP, Emitter: HQ500LP) or Cy5 (Exciter: FF01-628/40-25, Dichroic: FF660-Di01−25×36, Emitter: FF01-692/40-25; Semrock, Rochester, N.Y.). Single GFP expressing cells were readily detected with this system. […] Eight brains implanted with CNS-1-GFP cells and six brains with LN-229-GFP cells were analyzed.
Briefly, the main tumor mass was segmented using a fast 3-D region growth algorithm with intensity and gradient-based inclusion/exclusion criteria. Individual slice images were manually edited if necessary. Dispersed cells and clusters were detected by thresholding a Gaussian high pass filter image, discounting the masked main tumor mass. […] Light scattering in tissue might appear as a false positive signal in Cy5 volumes, However, we processed Cy5 volumes with a next-image processing algorithm, and used attenuation and scattering parameters for brain tissue that were previously described. Similar parameters were applied for both SBK2-Cy5 and scrambled-Cy5 volumes. To find co-labeled cells/clusters we applied a logical AND operator between the dispersed cell and Cy5 volumes. The lower limit for the blood vessel detection algorithm was ˜30 μm diameter. 3-D volumes of tumor, dispersed cells, Cy5 labeled cells, and vasculature were rendered using Amira software (Visage Imaging Inc., San Diego, Calif.), with modifications developed expressly for cryo-image data. Pseudo-colors were chosen to give the best contrast between the different data volumes.

[2] = system: LN-229-GFP intracranial tumors; test: In vivo labeling of LN-229-GFP intracranial tumors with Cy5 probes, 3-D cryo-imaging; parameters: species or system mouse; conditions: for Cy5 fluorescence of main tumors and dispersed cell populations: LN-229 tumors, i.v. probe, 90 min clearance
Source text: Individual slice images were manually edited if necessary.
Total fluorescence signal was then normalized for tumor volume.

[3] = Mouse health after multiple doses of Cy5 probes; assay type: in vivo; conditions: delivery of multiple doses
[4] = system: LN-229-GFP flank tumors; test: Histologic probe labeling of LN-229-GFP flank tumor tissue sections; assay type: binding, human; conditions: probe 1 μM, 1 hour, room temperature
Experimental: Tumors were embedded in Tissue Freezing Medium (Electron Microscopy Sciences, Hatfield, Pa.) in a dry ice ethanol slurry and cryosectioned at 7-μm intervals.
For probe labeling, tissue sections were blocked with 2% goat serum in phosphate-buffered saline for 20 minutes at room temperature, then incubated with SBK2-Texas Red or scrambled Texas Red probes diluted to 1 μMin block buffer for 1 hour at room temperature in dark conditions. The sections were rinsed with phosphate-buffered saline, coverslipped with Citifluor Antifadent Mounting Medium (Electron Microscopy Sciences), and imaged immediately at ×20 magnification on a Leica DMI 6000 B inverted microscope (Leica Microsystems GmbH, Wetzlar, Germany) using a Retiga EXi camera (QImaging, Surrey, BC) and Metamorph software (MolecularDevices, Downington, Pa.). Images were acquired across the entire tissue using bright-field and fluorescence optics for fluorescein (GFP) and Texas Red (probe). The resultant images were tiled and flattened to form a single composite image using Metamorph software. A human specific Vimentin antibody (clone SP20; Thermo Fisher Scientific, Fremont, Calif.) was used to detect the implanted LN-229 tumor cells and imaged as above.

[5] = system: LN-229 flank tumors; conditions: 0.1 mmol/kg i.v.
Source text: Cells were infected with lentivirus encoding green fluorescent protein (GFP), diluted in BD Matrigel Matrix (BD Biosciences, Franklin Lakes, N.J.), and injected into both flanks of female nude athymic mice (NCr-nu/+, NCr-nu/nu, 20-25 g each). Approximately 1.4×10^6 cells were implanted per flank. To correlate tumor position with GFP fluorescence, mice were imaged using the Maestro FLEX In Vivo Imaging System as previously described. Tumor area was approximately 0.5 cm^2, as measured from GFP fluorescence images acquired with the Maestro just before MRI.
The MRI study was performed using a Bruker Biospec 7-T MRI scanner (Bruker Corp, Billerica, Mass.) with a 72-mm diameter cylindrical radio frequency coil. Mice bearing LN-229 flank tumors were imaged at 2 to 5 weeks after tumor implant. […]
Image analysis was performed by using Bruker ParaVision 4.0 imaging software. Regions of interest were drawn over the whole tumor in the 2D imaging plane and average signal intensity was measured. Contrast-to-noise ratios (CNRs) in the tumor were calculated at each time point and averaged from different mice (n=3) using the following equation: CNR=(St−Sm)/(δn), where St and Sm denote the signal in tumor and adjacent thigh muscle and δn is the SD of noise estimated from the background air. The P values were calculated using a two-tailed Student's t test, assuming statistical significance at P<0.05. […]

[6] = system: prostate tumors; test: Labeling of prostate tumors with PTPμ probe (FIG. 3)

| Compound | Cy5 fluorescence intensity of main tumors and dispersed cell populations [1] | labeling of tumor (Cy5 signal) in words [1] | Cy5 fluorescence of main tumors and dispersed cell populations [2] | effects on mouse health [3] | labeling of flank tumor sections [4] | pattern of tumor enhancement on T1-weighted images / heat maps [5] | also measured |
| --- | --- | --- | --- | --- | --- | --- | --- |
| SBK2-Cy5: SBK2 peptide (SEQ ID NO: 5) with additional N-terminal glycine conjugated to Cy5 NHS ester dye (Cy5-GEGDDFNWEQVNTLTKPTSD) | 73.5+/−16.2 | brightly labeled | 114.7+/−25.9 | did not result in deleterious effects |  |  | blood-brain barrier crossing ([1]; mouse, in vivo, iv): crosses the blood-brain barrier; dispersed cell population labeled ([2]; LN-229-GFP intracranial tumors): greater than 99%; labeling of main GFP-positive tumor in words ([2]; LN-229-GFP intracranial tumors): bright Cy5 fluorescence signal |
| scrambled Texas Red: scrambled peptide probe labeled with Texas Red (GFTQPETGTDNDLWSVDNEK; not fully specified (N-terminus); also: labeled with Texas Red, site not given here) [reference compound] |  |  |  |  | did not label the tumor |  |  |
| scrambled-Cy5: scrambled sequence of the SBK2 peptide (SEQ ID NO: 10) conjugated to Cy5 dye; control probe (GFTQPETGTDNDLWSVDNEK; also: Cy5 dye conjugate, attachment site not given here) [reference compound] | 7.2+/−2.3 | did not label tumors | 5.8 | did not result in deleterious effects |  |  | labeling of tumor (Cy5 signal) in words ([1]; listed as scrambled probe): no significant signal above background |
| scrambled Tris-(Gd-DOTA)3: scrambled SBK2 peptide (SEQ ID NO: 10) linked to Gd-DOTA; nontargeted control agent (CGFTQPETGTDNDLWSVDNEK; numbers in words are those of the source; also: Tris-(Gd-DOTA)3 conjugate, attachment site not given here) [reference compound] |  |  |  |  |  | enhanced contrast of the tumor edge compared with the tumor center |  |
| SBK2-Texas Red: SBK2 peptide probe labeled with Texas Red (EGDDFNWEQVNTLTKPTSD; not fully specified (N-terminus); also: labeled with Texas Red, site not given here) |  |  |  |  | labeled the entire tumor with greatest intensity in the tumor center |  | recognition of prostate tumors [6]: recognized |
| CC(O)CN1CCN(CC(=O)[O-])CCN(CC(=O)[O-])CCN(CC(=O)[O-])CC1.[Gd+3] (centres unmarked) [ProHance, Gadoteridol, reference compound] |  |  |  |  |  | enhanced contrast of the tumor edge compared with the tumor center |  |
